For two molecules, EC50 and IC50 results are on record in ChEMBL document CHEMBL1201862, “PubChem BioAssay data set” (2004).

Common to all, as to type: functional
Test [1] is described as follows: growth suppression of beta-catenin-knockout colon cells, dose response, cell-based, HCT116, human colon tumor (AID 1045).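 Note: HCT116 colon tumor cells with beta catenin knocked out; cells exposed to compound for 60 hours.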
The next test has as its target T1, Protein RecA (Mycobacterium tuberculosis, UniProt P9WHJ3).
T1 sequence (P9WHJ3 whole entry): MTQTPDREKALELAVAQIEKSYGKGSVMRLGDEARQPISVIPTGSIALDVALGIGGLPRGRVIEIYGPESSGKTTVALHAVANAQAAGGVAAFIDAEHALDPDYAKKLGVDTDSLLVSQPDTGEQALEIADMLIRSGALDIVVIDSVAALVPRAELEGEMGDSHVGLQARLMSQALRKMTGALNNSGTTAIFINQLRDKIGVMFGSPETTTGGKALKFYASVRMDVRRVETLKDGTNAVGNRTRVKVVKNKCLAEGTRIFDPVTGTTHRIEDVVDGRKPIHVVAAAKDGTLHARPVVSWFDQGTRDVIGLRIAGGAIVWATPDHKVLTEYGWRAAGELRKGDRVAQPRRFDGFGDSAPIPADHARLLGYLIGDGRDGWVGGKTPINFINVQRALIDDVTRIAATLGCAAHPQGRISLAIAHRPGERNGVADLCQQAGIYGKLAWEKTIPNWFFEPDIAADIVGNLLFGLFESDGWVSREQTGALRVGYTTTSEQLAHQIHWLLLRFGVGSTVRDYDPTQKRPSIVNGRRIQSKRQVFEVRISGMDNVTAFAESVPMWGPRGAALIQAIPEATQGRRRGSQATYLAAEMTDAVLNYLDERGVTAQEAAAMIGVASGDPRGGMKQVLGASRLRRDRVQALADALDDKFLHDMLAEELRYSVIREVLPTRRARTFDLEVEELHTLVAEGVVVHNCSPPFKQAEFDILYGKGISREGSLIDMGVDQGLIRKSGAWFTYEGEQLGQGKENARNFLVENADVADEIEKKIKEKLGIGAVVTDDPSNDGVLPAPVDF
Briefly: Fluorescence Cell-Free Homogeneous Dose Retest to Identify Inhibitors of RecA-Intein Splicing Activity. [Related pubchem assays (depositor defined):AID2097, AID2223, AID489010, AID492950].

Test [2] is described as follows: growth suppression of PTEN-null colon cells, dose response, cell-based, HCT116 PTEN knockout (AID 1047).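 Note: HCT116 colon tumor cells with PTEN knocked out; cells exposed to compound for 60 hours before readout; potency for loss of cell viability measured by luminescence.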
Test [3] addresses T2, High affinity choline transporter 1 (Homo sapiens, UniProt Q9GZV3).
T2 sequence (Q9GZV3 whole entry): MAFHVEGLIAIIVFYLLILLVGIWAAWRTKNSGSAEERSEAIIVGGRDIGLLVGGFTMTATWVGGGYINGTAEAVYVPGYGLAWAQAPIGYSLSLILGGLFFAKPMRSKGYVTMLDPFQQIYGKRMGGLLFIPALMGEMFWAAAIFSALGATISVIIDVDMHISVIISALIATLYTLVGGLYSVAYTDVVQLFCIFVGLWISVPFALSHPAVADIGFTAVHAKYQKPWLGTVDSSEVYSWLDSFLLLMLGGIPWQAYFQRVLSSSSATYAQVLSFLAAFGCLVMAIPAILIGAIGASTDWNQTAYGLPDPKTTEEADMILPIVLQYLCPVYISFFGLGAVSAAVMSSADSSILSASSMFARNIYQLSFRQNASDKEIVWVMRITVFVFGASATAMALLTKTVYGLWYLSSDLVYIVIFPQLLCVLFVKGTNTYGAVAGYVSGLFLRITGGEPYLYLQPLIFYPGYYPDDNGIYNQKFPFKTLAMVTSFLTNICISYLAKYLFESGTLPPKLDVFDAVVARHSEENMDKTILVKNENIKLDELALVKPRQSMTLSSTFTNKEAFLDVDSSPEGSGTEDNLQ
Briefly: CHT inhibitors, dose response, cell-based, 5-point CRC, membrane potential dye (AID 504840).

The target in test [4] is T3, Short transient receptor potential channel 4 (Mus musculus, UniProt Q9QUQ5).
T3 sequence (Q9QUQ5 whole entry): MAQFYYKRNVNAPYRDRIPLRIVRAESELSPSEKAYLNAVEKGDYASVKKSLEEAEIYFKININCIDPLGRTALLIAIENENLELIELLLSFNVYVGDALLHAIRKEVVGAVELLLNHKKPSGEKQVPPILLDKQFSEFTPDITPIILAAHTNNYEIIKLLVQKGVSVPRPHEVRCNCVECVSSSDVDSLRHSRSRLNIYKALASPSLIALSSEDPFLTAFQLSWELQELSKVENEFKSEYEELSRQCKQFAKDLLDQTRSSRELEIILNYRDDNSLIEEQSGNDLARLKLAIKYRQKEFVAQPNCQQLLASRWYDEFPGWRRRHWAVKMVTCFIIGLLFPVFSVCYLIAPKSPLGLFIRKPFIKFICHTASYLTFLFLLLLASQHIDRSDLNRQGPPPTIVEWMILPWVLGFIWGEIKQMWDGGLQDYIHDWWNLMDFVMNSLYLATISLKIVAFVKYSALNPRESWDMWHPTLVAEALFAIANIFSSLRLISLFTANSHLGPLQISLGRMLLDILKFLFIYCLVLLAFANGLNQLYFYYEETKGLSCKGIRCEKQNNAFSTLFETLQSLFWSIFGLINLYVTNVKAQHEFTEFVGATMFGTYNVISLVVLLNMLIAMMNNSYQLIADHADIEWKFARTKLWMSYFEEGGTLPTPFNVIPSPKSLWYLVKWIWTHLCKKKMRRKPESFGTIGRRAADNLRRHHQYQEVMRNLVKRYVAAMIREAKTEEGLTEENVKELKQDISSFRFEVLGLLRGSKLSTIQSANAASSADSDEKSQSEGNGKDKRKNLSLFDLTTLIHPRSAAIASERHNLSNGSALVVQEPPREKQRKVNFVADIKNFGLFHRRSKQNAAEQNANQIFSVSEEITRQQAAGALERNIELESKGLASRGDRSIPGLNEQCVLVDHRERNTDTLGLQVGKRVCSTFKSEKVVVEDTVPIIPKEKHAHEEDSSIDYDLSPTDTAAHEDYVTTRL
Briefly: mouse TRPC4 channel inhibitors, dose response, cell-based, HEK293 TRPC4/mu-opioid, Fluo-4 calcium (AID 434942).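 Note: potency of inhibitors blocking the TRPC4 calcium response.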

Activity calls are given as the source filed them.

What is called EC50 is the concentration giving half of the maximal effect. Regarding `Cc1oc2c(c1C(=O)N1CCC(C)CC1)C(=O)c1ccccc1C2=O`, the EC50 in test [1] was 1860 nM (active); on Protein RecA, 1090 nM (active); in test [2], 1920 nM (active).

As a reminder, the IC50 is the concentration at which inhibition is half-maximal. Take `O=[N+]([O-])c1ccc(O)c(C2=NNC(c3ccccc3F)C2)c1` (stereo not given): in test [3], the IC50 is 15100 nM (active). Besides, the EC50 in test [4] was 15000 nM (active).
